The values below come from publication PMC8321398, “The discovery of a novel series of compounds with single-dose efficacy against juvenile and adult Schistosoma species” (PLoS Neglected Tropical Diseases, 2021).

Structures are written as SMILES. Read-outs that look alike come from different tables or passages of the source.

The target in series [1] is T1, Kv1.5 (Homo sapiens, UniProt P22460).
T1 construct: Metrion biosciences
Put plainly: Ion channel activity (Metrion), Kv1.5, QPatch. Type of series: cell-based. Particulars: dose-response up to 10 μM. Here is the method: (§1) Ion channel activity. Activity of compounds against ion channels was assessed by Metrion biosciences, Cambridge, CB21 6AD, UK in dose-response experiments (n = 2) up to 10 μM compound concentration with standards & equipment as listed for each ion channel (hERG–verapamil—QPatch, Nav1.5 –amitryptiline—QPatch, Kv1.5 –transDSC—QPatch, Cav1.2 –nimodipine—Flex).

For series [2], the system named is S. mansoni adult worms. Nature of the series: In vivo efficacy, mouse model of adult (42-day old) S. mansoni infection. On the procedure: (§2) Prior to in vivo efficacy experiments, a single animal was given a dose of drug (using the same formulation) that was twice as large as that planned for use in the efficacy experiments and was observed periodically for adverse clinical signs for 24h by trained veterinarians. Adverse clinical signs checked include postural defect, vocalization, oculo-nasal discharge, hypersalivation, change in activity, abnormal gait, respiration and pulse, piloerection, loss of pupillary reflex, eyelid reflex, chromodacryorrhea, reaction to handling, tremor, convulsions, prostration, diarrhoea, cachexia, emaciation. […] In vivo efficacy was assessed in female CD1 mice using methods based on those previously described. Mice were infected subcutaneously with 150 cercariae. Test compounds were suspended in 7% Tween-80 / 3% Ethanol / double distilled water and drug dispersal was facilitated by vortexing and using a sonicating water bath (Formulation “Aqueous”). Alternatively, drugs were first dissolved in DMSO, then diluted with corn oil to give a 1:19 DMSO:corn oil solution/suspension of test compound (Formulation “Corn oil”). Dosing was by oral gavage. Mice in the negative control groups were given the drug suspension vehicle only. Positive controls for treatment of adult, day 42 old, infections were treated with PZQ and those for juvenile, day 21 old, infections with artemether, which unlike PZQ is effective against the juvenile worm infections in mice. During and following treatment, mice were closely observed for any ill effects by staff experienced in animal handling. This involved individuals who were blinded to the treatment groups. Effects they were trained to look for included hunching, immobility, piloerection, subdued behaviour, diarrhoea and loss of body condition. None were seen. Worms were recovered by portal perfusion with citrate saline 8–14 days post treatment and counted. Differences between groups relative to the non-drug treated controls were assessed for statistical significance by Student’s unpaired t-test using GraphPad Prism Software. P values are presented as follows:- ns–P > 0.05 (not significant), * P ≤ 0.05, ** P ≤ 0.01, *** P ≤ 0.001, **** P ≤ 0.0001.
(§3) For pharmacokinetic analysis during the in vivo efficacy experiments individual animals were only sampled once. Samples were taken from one animal in each experimental group at each of 1, 4, 8 h and samples from two animals in each group were taken at 24 h.

Assay in series [3]: as above
Particulars: female, CD1, mouse, plasma, po, mouse, Adult infection, read-out: Plasma conc @24 h (efficacy experiment). Here is the method:
as §2, §3

In series [4] the target is T2, Cav1.2 (Homo sapiens, UniProt Q13936).
T2 construct: Metrion biosciences
T2 sequence (Q13936 whole entry): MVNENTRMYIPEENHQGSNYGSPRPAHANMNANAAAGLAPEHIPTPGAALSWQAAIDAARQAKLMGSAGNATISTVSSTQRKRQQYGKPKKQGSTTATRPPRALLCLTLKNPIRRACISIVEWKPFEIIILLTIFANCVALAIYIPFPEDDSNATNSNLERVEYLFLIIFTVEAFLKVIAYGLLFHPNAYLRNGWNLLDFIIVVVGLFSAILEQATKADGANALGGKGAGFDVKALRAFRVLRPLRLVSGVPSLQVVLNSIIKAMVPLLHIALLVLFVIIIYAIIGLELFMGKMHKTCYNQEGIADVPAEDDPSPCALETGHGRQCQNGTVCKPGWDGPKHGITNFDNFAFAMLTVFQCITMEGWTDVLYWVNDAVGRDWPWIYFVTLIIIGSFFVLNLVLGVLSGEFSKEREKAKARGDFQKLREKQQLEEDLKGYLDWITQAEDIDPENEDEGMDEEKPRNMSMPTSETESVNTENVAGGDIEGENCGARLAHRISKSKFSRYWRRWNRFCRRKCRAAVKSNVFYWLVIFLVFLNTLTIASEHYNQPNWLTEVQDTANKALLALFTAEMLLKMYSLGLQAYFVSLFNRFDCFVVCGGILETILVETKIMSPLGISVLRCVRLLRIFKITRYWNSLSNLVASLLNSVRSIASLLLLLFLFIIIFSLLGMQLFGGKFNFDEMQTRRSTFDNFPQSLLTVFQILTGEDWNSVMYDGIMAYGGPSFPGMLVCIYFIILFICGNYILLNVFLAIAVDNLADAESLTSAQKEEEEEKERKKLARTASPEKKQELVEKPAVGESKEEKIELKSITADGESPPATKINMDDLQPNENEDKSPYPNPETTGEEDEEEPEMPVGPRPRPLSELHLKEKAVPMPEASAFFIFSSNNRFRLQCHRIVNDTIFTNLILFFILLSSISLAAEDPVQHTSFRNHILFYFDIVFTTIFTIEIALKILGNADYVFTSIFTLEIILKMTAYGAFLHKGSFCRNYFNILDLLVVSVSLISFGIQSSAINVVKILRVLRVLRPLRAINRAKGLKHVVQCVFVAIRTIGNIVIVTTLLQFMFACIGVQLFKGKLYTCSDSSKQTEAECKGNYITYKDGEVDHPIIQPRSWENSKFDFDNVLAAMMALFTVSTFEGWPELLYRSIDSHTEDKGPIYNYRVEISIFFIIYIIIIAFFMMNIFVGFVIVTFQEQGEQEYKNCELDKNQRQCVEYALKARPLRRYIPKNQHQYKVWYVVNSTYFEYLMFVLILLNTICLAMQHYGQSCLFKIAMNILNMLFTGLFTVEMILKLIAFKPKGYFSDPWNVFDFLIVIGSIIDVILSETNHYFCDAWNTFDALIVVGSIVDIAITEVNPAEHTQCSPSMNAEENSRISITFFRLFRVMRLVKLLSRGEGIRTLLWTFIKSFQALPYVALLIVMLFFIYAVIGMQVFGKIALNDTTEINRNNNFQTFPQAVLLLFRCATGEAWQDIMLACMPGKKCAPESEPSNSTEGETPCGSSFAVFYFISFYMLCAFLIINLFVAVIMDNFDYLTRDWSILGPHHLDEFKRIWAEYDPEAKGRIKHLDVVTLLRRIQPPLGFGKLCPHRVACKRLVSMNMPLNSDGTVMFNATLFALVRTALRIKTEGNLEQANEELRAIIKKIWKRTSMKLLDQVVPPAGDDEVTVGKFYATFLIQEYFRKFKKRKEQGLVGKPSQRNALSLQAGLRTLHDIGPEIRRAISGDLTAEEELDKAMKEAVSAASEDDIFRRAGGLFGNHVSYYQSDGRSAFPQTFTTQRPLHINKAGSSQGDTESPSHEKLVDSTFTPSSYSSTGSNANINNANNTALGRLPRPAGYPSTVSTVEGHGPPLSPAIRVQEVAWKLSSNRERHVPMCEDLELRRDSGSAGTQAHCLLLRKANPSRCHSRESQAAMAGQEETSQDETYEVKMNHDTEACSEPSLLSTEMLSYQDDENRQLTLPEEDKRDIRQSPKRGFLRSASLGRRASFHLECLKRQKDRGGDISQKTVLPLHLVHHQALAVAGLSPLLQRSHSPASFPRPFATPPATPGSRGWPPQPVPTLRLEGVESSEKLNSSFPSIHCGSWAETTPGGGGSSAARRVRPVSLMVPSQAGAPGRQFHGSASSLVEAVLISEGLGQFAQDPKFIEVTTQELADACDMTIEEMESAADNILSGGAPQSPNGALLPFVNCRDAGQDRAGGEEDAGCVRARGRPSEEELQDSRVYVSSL
T2 sequence (Q08289 whole entry partner): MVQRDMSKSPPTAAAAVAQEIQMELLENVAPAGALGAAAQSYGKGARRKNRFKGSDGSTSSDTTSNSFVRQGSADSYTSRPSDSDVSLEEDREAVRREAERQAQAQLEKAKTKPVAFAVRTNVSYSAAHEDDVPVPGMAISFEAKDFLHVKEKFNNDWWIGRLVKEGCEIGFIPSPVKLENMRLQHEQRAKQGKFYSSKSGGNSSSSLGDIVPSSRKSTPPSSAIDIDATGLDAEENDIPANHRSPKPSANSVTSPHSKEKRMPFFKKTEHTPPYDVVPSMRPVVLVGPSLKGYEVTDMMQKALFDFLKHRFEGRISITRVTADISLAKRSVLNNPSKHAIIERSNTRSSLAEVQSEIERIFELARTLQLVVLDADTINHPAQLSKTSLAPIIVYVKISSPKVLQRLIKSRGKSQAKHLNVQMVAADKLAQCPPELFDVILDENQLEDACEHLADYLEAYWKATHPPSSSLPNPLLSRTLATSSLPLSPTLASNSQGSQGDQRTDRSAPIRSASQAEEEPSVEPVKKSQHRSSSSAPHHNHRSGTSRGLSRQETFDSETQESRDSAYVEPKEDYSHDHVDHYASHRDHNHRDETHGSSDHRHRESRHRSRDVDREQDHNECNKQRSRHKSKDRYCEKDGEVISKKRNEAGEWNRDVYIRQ
T2 sequence (P54289 25-956 partner limits assumed): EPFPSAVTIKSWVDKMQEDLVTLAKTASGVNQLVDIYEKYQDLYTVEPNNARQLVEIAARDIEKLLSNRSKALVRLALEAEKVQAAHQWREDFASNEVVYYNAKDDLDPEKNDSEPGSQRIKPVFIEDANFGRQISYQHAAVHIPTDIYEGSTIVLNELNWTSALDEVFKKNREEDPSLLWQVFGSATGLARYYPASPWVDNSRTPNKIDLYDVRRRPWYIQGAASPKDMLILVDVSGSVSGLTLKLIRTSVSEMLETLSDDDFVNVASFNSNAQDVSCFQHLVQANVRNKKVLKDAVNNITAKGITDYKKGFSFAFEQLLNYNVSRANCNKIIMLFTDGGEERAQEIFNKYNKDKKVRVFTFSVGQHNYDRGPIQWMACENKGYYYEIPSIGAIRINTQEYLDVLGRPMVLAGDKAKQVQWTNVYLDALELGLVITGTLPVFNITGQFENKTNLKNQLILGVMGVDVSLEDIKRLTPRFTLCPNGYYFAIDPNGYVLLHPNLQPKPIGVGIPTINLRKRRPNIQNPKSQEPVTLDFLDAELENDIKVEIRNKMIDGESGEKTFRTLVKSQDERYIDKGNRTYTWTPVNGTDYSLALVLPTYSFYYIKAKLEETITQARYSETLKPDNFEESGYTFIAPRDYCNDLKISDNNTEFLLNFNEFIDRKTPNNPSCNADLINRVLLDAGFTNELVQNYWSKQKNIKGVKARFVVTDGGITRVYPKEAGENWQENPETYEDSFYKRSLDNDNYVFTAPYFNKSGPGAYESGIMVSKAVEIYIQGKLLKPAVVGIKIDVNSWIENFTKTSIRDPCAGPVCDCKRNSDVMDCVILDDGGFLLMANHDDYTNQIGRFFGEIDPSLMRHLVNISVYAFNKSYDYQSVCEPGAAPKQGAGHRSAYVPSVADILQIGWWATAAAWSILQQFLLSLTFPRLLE
T2 sequence (P54289 957-1103 partner limits assumed): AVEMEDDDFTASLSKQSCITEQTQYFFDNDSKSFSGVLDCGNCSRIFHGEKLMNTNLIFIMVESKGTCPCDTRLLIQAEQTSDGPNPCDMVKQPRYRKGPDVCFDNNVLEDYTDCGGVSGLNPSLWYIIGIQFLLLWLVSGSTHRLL
Put plainly: Ion channel activity (Metrion), Cav1.2, Flex. Type of series: cell-based. The conditions noted are these: dose-response up to 10 μM. Here is the method:
as §1

The test system of series [5] is S. japonicum adult. Nature of the series: In vitro adult S. japonicum worm assay. The format is cell-based. The conditions noted are these: for EC50: Schistosoma japonicum, S. japonicum, 120 h incubation, read-out: Sj adult EC50; for Potency ratio Sj/Sm: adult EC50 S. japonicum / S. mansoni. From the text:
(§4) The Puerto Rican strain of S. mansoni was maintained in Biomphalaria glabrata and CD1 mice. Oncomelania hupensis (hupensis) infected with S. japonicum (Chinese strain) and Bulinus truncatus (truncatus) infected with Egyptian strain S. haematobium were obtained from BEI Resources, NIAID, NIH. Infection of mice for worm recovery was as previously described except that, whereas cercariae of S. mansoni and S. haematobium were obtained by shedding from infected snails under lights, cercariae of S. japonicum were obtained by gently crushing the snails. Furthermore, adult S. haematobium were recovered after 12 weeks following mouse infection.
(§5) In vitro efficacy was carried out as previously described. In brief, worms were recovered from infected mice by portal perfusion 3 weeks (for juveniles) or 6 weeks (for adults) post-infection using warm perfusion medium (Dulbecco’s Modified Eagle’s Medium [DMEM], 2mM L-glutamine, 100 Units/ml penicillin, 100μg/ml streptomycin, 20mM Hepes, 10 Units/ml heparin [Sigma, UK]). Worms were washed free of red blood cells using the perfusion medium, and finally suspended in complete medium (cDMEM: DMEM, 2mM L-glutamine, 100 Units/ml penicillin, 100μg/ml streptomycin, 10% FCS). The juvenile assays were carried out in 96-well plates, each well containing 6–8 worms in 200 μL cDMEM. The adult worm assay was in 24-well plates, each well containing 3 worm pairs in 1mL cDMEM. Both the juvenile and adult worm cultures were kept at 37° C, in an atmosphere of 5% CO2. Drug effects were determined on day 5 following drug treatment by assessing the viability of individual worms as described in [14].

Series [6] can be described thus: Stability in phosphate buffer and simulated gastric fluid. Type of series: physicochemical. Particulars: for degradation in simulated gastric fluid: pH 1.2, 37°C for 3 h; for degradation in phosphate buffer: pH 8.0, 37°C for 3 h.
The test system of series [7] is S. haematobium adult. Nature of the series: In vitro adult S. haematobium worm assay. Particulars: for EC50: Schistosoma haematobium, S. haematobium, 120 h incubation, read-out: Sh adult EC50; for Potency ratio Sh/Sm: adult EC50 S. haematobium / S. mansoni. The format is cell-based.
Source text: as §4, §5

Series [8] addresses T3, Nav1.5 (Homo sapiens, UniProt Q14524).
T3 construct: Metrion biosciences
Put plainly: Ion channel activity (Metrion), Nav1.5, QPatch. The format is cell-based. The conditions noted are these: dose-response up to 10 μM. On the procedure:
as §1
In general terms: The patch-clamp technique gives a direct electrical read-out from membranes.

A short description of series [9]: Stability in plasma. The conditions noted are these: 37°C for 3 h. Type of series: in vitro ADME.
Series [10] deals with T4, hERG (Homo sapiens, UniProt Q12809).
T4 construct: Metrion biosciences
Nature of the series: Ion channel activity (Metrion), hERG, QPatch. Type of series: cell-based. The conditions noted are these: dose-response up to 10 μM. On the procedure: as §1
On the technique in general: The hERG channel carries a current that helps repolarise heart muscle cells.

Series [11] concerns panel of 50 human kinases. Nature of the series: Kinase panel activity. Type of series: biochemical. Particulars: 1 μM. Here is the method:
Kinase panel activity: Activity of compounds at 1 μM was assessed against a panel of 50 kinase enzymes (MKK1, JNK1, p38a MAPK, RSK1, PDK1, PKBa, SGK1, S6K1, PKA, ROCK 2, PRK2, PKCa, PKD1, MSK1, CAMKKb, CAMK1, SmMLCK, CHK2, GSK3b, PLK1, Aurora B, LKB1, AMPK (hum), MARK3, CK1δ, CK2, DYRK1A, NEK6, TBK1, PIM1, SRPK1, EF2K, HIPK2, PAK4, MST2, MLK3, TAK1, IRAK4, RIPK2, TTK, Src, Lck, BTK, JAK3, SYK, EPH-A2, HER4, IGF-1R, TrkA, VEG-FR) carried out by the MRC Protein Phosphorylation and Ubiquitinylation Unit at the University of Dundee, Dundee, DD1 5EH, UK.

Series [12] is described as follows: Observation of mice for adverse clinical signs / ill effects. Type of series: in vivo. Particulars: 200 mg/kg single oral dose, one mouse 400 mg/kg. On the procedure: Prior to in vivo efficacy experiments, a single animal was given a dose of drug (using the same formulation) that was twice as large as that planned for use in the efficacy experiments and was observed periodically for adverse clinical signs for 24h by trained veterinarians. Adverse clinical signs checked include postural defect, vocalization, oculo-nasal discharge, hypersalivation, change in activity, abnormal gait, respiration and pulse, piloerection, loss of pupillary reflex, eyelid reflex, chromodacryorrhea, reaction to handling, tremor, convulsions, prostration, diarrhoea, cachexia, emaciation. […] In vivo efficacy was assessed in female CD1 mice using methods based on those previously described. Mice were infected subcutaneously with 150 cercariae. Test compounds were suspended in 7% Tween-80 / 3% Ethanol / double distilled water and drug dispersal was facilitated by vortexing and using a sonicating water bath (Formulation “Aqueous”). Alternatively, drugs were first dissolved in DMSO, then diluted with corn oil to give a 1:19 DMSO:corn oil solution/suspension of test compound (Formulation “Corn oil”). […] Worms were recovered by portal perfusion with citrate saline 8–14 days post treatment and counted. Differences between groups relative to the non-drug treated controls were assessed for statistical significance by Student’s unpaired t-test using GraphPad Prism Software. […]

T1 sequence (P22460 whole entry): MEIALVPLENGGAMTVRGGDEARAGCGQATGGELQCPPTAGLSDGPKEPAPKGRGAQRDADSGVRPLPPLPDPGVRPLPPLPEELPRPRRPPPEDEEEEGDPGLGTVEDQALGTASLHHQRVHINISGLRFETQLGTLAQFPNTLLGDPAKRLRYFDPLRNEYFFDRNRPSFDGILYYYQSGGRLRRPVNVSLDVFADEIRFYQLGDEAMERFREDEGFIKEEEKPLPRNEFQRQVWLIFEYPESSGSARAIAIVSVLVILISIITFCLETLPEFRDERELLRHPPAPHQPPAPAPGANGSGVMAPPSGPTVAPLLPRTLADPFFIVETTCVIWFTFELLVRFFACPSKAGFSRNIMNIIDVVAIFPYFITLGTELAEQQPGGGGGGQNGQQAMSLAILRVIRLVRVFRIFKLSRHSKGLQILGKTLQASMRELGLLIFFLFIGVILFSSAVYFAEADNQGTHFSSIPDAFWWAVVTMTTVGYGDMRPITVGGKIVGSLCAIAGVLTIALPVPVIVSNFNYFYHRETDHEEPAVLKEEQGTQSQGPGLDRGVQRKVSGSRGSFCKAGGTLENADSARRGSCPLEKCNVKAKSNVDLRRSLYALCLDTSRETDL

What is called EC50 is the concentration needed to bring the measured effect to its halfway point. Turning to `Fc1ccc(-c2cn3c(-c4ccc5[nH]ncc5c4F)c(C(F)(F)F)nc3cn2)cc1C(F)(F)C(F)(F)F` [LSHTM-3645], the “inhibition of Kv1.5” value in series [1] is on record as “Neither LSHTM-3645 nor LSHTM-3686 showed any inhibition”. The molecule also displayed a Worms remaining in series [2] (mouse, Adult infection, oral 6.25 mg/kg, formulation corn oil) of 1%. Also, the “efficacy against adult worm infections” value in series [2] (mouse, single oral dose (Fig 9B)) is on record as “highly effective”. Moreover, the concentration at 24 h in [3] (6.25 mg/kg, oral 6.25 mg/kg, formulation corn oil) stood at 1010 ng/mL. The “inhibition of Cav1.2” value in series [4] was “Neither LSHTM-3645 nor LSHTM-3686 showed any inhibition”. In series [5], the EC50 came to 129 nM and the “Potency ratio Sj/Sm” value is reported as 13.3. Moreover, in series [6], the “degradation in simulated gastric fluid” value is “No degradation” and the “degradation in phosphate buffer” value was “No degradation”. Moreover, in series [7], the EC50 was determined as 6.5 nM and the “Potency ratio Sh/Sm” value is 0.7. In addition, in series [8], the “inhibition of Nav1.5” value was “Neither LSHTM-3645 nor LSHTM-3686 showed any inhibition”. For the same molecule, the degradation in plasma entry in series [9] is “No degradation”. Also, the “inhibition of hERG” value in [10] is reported as “Neither LSHTM-3645 nor LSHTM-3686 showed any inhibition”.

Consider `Fc1ccc(-c2cn3c(-c4ccc5[nH]ncc5c4F)c(C(F)(F)F)nc3cn2)cc1C(F)(F)F` [LSHTM-3642, 3-(4-fluoro-1H-indazol-5-yl)-6-(4-fluoro-3-(trifluoromethyl)phenyl)-2-(trifluoromethyl)imidazo[1,2-a]pyrazine], for which the “in vivo EC50 against adult worms” value in [2] (mouse model, single oral dose (Fig 9A)) is given as < 6.25 mg/kg. The molecule further came in with a Worms remaining in series [2] (mouse, Adult infection, oral 12.5 mg/kg, formulation Aq) of 1%. Moreover, in series [3] (12.5 mg/kg, oral 12.5 mg/kg, formulation Aq), the concentration at 24 h turned out to be 939 ng/mL. Also, the “inhibition, panel of 50 human kinases” value in [11] is ≤ 25%. For the same molecule, the EC50 in series [5] came out at 389 nM; in [7] it was 23 nM.

Consider `Fc1c(-c2c(C(F)(F)F)nc3cnc(-c4cccc(C(F)(F)C(F)(F)F)c4)cn23)ccc2[nH]ncc12` [LSHTM-3608], for which, in series [5], the EC50 was found to be 95.2 nM and the “Potency ratio Sj/Sm” value came to 6.2. Also, in [7], the EC50 is 9.3 nM and the “Potency ratio Sh/Sm” value stood at 0.6.

Regarding `CC(C)c1cc(-c2cn3c(-c4ccc5[nH]ncc5c4F)c(C4CC4)nc3cn2)ccc1F` [LSHTM-3686], the “inhibition of Kv1.5” value in [1] is on record as “Neither LSHTM-3645 nor LSHTM-3686 showed any inhibition”. The Worms remaining in [2] (mouse, Adult infection, oral 6.25x2 mg/kg (12 h apart), formulation corn oil) amounted to 2.4%. The concentration at 24 h in series [3] (oral 6.25x2 mg/kg (12 h apart), formulation corn oil) stood at 241 ng/mL. Further, in series [4], the “inhibition of Cav1.2” value was “Neither LSHTM-3645 nor LSHTM-3686 showed any inhibition”. Further, in series [5], the EC50 stood at 46.9 nM and the “Potency ratio Sj/Sm” value is recorded as 8.7. For the same molecule, in series [6], the “degradation in simulated gastric fluid” value is “No degradation” and the “degradation in phosphate buffer” value is given as “No degradation”. In series [7], the EC50 turned out to be 3.7 nM and the “Potency ratio Sh/Sm” value came out at 0.7. Further, in [8], the “inhibition of Nav1.5” value is listed as “Neither LSHTM-3645 nor LSHTM-3686 showed any inhibition”. In addition, the degradation in plasma result in series [9] was “No degradation”. The “inhibition of hERG” value in [10] was “Neither LSHTM-3645 nor LSHTM-3686 showed any inhibition”.

For the molecule `CC(C)c1nc2cnc(-c3ccc(F)c(C(F)(F)F)c3)cn2c1-c1ccc2[nH]ncc2c1F` [LSHTM-3604], the “inhibition, panel of 50 human kinases” value in series [11] is recorded as ≤ 25%.

For `CC(C)c1nc2cnc(-c3ccc(F)c(C(F)(F)F)c3)cn2c1-c1c(F)cc(O)cc1F` [LSHTM-3520], the “reducing the S. mansoni worm count” value in [2] (mice infected for 42 days (adult worms), 200 mg/kg single oral dose) is on record as “highly effective”. For the same molecule, the Worms remaining in series [2] (mouse, Adult infection, oral 200 mg/kg, formulation Aq) was determined as 1%. Further, the “Plasma conc @24 h (efficacy experiment)” value in series [2] (mouse, Adult infection, oral 200 mg/kg, formulation Aq, 200 mg/kg) was 1,907 ng/mL. Moreover, the concentration at 24 h in series [3] (200 mg/kg, oral 200 mg/kg, formulation Aq) is 2000 ng/mL. Moreover, the “inhibition, panel of 50 human kinases” value in [11] is ≤ 25%. In series [5], the EC50 was determined as 73.5 nM and the “Potency ratio Sj/Sm” value worked out at 1.6. In [7], the half-maximal effective concentration (EC50) was found to be 17.9 nM and the “Potency ratio Sh/Sm” value worked out at 0.4. The “issues observed with the animals exposed” value in [12] was “no issues observed”.
